The source of these data is patent US20120142657A1, “GABA-STEROID ANTAGONISTS AND THEIR USE FOR THE TREATMENT OF CNS DISORDERS” (UMECRINE AB, priority 2004, published 2012).

The target in this assay is T1, rat GABA-A receptor (alpha1, beta2, gamma2L) (Rattus norvegicus, UniProt P18508+P62813+P63138, INS375LLRMFSFK).
T1 construct: expressed in transfected cells; host or cells: Xenopus laevis oocytes (mRNA injection)
The assay is described as follows: Chloride flux (current) in recombinant GABA-A receptors expressed in Xenopus laevis oocytes, voltage clamp. The assay is classed as cell-based. The conditions noted are these: chloride flux induced by GABA alone. An excerpt:
Studies of Chloride Flux in Recombinant GABA-A Receptors (Alpha1, Beta2, Gama2L) Expressed in Xenopus laevis Oocytes Using Voltage Clamp Methods.
The GABA-A receptor used to test the steroids in the present invention was recombinantly expressed in oocytes of Xenopus laevis. The oocytes have a large capacity to express proteins for the surface membrane from mRNA injected into the oocyte. The receptor contains five proteins of three different types and the mRNA for the receptor subtypes alpha1, beta2, gamma2L were expressed in the present test situation. These subtypes of the GABA-A receptor are the most common in the central nervous system. These GABA-A receptors contain two alpha1 proteins, two beta2 and one gamma protein. After 48 hours of incubation the GABA-A receptors are mounted in the membrane and behave in vitro in a similar way as the receptor in situ. Therefore this model system is considered by persons skilled in art to be a good in vitro test system for GABA-A receptor active drugs. The flux of chloride through the chloride channel is a result of GABA activity on the GABA-A receptor and GABA-A receptor modulators like the 3alpha-hydroxy-5alpha/beta-pregnan-steroids can enhance the effectiveness of GABA. The flux of chloride through the receptor is measured as the current induced by the flux with a voltage clamp technique. Dose response curves of the agonists and antagonists can be developed and the current is dependent of the GABA-A receptor activation obtained after the interaction between different dosages of agonists and antagonists. By normalizing the data against a precise current, in the present study 2 μA, the results from different oocytes can be compared and by normalizing the current change against a specific dose, here 10 μM, the different test substances can be compared. The 3alpha-hydroxy-5alpha-pregnan-20-one induced enhancement of GABA mediated chloride flux was set to 1 and obtained by superfusing the GABA-A receptor expressing oocytes with 3 μM GABA+3 μM 3alpha-hydroxy-5alpha-pregnan-20-one in an in vitro bath. The chloride flux was measured as the current induced by the flux of chloride through the GABA-A receptors. The GABA induced chloride flux was set to 1 and obtained by superfusing the GABA-A receptor expressing oocytes in vitro with 30 μM GABA. The inhibiting effect on 3alpha-hydroxy-5alpha-pregnan-20-one induced enhancement of GABA mediated chloride flux by the tested UC-steroids is compared to the inhibiting effect of the same UC-steroids on GABA activation of the GABA-A receptor. In FIG. 1 are the UC-steroids with low GABA antagonism highlighted with an X while the UC-steroids with partial GABA antagonism are highlighted with a black dot ([…]).
On the figure the result are normalized to the control currents activated by 30 µM GABA or 3 μM GABA+3 μM 3alpha-hydroxy-5alpha-pregnan-20-one. The control current in the absence of steroid antagonists is normalized to […]. Each steroid antagonist is tested at 10 μM. […] The black dot ([…]) highlights the steroid antagonist that inhibits both direct GABA-response (30 μM) and 3alpha-hydroxy-5alpha-pregnan-20-one enhanced GABA response. The labels of the data points are marked with product numbers, whereas the numbering of different substances full name is shown in Table 2 and Table 3.
The studies on 3alpha-hydroxy-5alpha-pregnan-20-one inhibition were made in the presence of 3 μM GABA+3 μM 3alpha-hydroxy-5alpha-pregnan-20-one. […] Number of cells recorded n=3-10. […]

T1 sequence (P62813 28-455, stated change not applied): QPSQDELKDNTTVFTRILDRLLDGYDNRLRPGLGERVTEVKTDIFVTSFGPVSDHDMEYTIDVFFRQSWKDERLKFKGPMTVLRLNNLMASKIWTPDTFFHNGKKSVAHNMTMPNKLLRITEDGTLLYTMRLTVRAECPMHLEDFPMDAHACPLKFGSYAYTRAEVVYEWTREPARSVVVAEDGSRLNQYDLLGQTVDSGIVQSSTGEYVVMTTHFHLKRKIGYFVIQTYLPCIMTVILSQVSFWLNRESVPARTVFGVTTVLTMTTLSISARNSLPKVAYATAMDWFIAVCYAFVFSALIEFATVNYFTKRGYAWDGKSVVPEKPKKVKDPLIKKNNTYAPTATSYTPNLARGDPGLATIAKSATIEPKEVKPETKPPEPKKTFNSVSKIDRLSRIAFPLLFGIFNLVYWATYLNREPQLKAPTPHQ
T1 sequence (P63138 26-474, stated change not applied): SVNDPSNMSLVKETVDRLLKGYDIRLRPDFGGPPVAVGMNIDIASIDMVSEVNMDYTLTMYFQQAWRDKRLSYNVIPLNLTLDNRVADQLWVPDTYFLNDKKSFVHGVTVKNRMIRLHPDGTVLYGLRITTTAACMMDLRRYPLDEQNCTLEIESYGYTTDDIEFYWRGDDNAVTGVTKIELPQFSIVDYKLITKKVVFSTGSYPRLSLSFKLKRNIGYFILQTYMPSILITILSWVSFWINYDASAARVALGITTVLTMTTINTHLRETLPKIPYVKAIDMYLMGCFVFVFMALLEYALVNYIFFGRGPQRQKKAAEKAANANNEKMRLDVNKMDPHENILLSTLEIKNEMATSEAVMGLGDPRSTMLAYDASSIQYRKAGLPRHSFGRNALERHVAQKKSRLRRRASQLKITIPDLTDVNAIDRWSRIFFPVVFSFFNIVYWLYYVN
T1 sequence (P18508 with tags, fused parts or gaps INS375LLRMFSFK): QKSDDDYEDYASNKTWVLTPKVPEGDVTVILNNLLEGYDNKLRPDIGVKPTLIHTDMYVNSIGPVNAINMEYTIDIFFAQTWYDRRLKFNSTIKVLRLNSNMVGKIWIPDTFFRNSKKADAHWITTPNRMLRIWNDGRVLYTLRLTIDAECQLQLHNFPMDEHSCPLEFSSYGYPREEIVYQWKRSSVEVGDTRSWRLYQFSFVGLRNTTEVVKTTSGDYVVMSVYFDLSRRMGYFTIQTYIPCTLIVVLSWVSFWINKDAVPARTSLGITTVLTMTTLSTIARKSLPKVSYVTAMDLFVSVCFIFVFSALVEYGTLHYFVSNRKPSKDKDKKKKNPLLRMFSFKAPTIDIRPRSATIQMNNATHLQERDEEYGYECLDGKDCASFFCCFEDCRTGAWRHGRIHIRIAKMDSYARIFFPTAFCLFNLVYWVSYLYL

Take `CC(=O)[C@H]1CC[C@H]2[C@@H]3CC[C@@H]4C[C@@H](O)CC[C@]4(C)[C@H]3CC[C@]12C` [UC1014, 5beta- PREGNAN-3beta-OL-20-ONE]: the “antagonism against GABA itself (in words)” value is “partial antagonism against the GABA effect”.
`C[C@]12CC[C@H](O)C[C@H]1CC[C@@H]1[C@@H]2CC[C@]2(C)[C@@H](C(=O)CO)CC[C@@H]12` [UC1015, 5beta-PREGNAN-3beta, 21-DIOL-20-ONE]: the “antagonism against GABA itself (in words)” value is “partial antagonism against the GABA effect”.
Next, `CC(=O)O[C@H]1CC[C@@]2(C)[C@@H](CC[C@@H]3[C@@H]2CC[C@]2(C)[C@@H](C(C)=O)CC[C@@H]32)C1` [UC1012, 5alpha-PREGNAN-3beta-OL-20-ONE ACETATE]: “partial antagonism against the GABA effect”; `CC(O)C1CCC2C3CCC4CC(O)CCC4(C)C3CCC12C` (stereo not drawn) [UC1011, 5alpha-PREGNAN-3beta, 20beta-DIOL]: “low antagonism against GABA it self”.
As for `C[C@@H](O)[C@H]1CC[C@H]2[C@@H]3CC[C@@H]4C[C@@H](O)CC[C@]4(C)[C@H]3CC[C@]12C` [UC1013, 5beta-PREGNAN-3beta, 20alpha-DIOL], the entry is “low antagonism against GABA it self”.
